Consider 92 compounds from a melting point compilation (Tetko et al.; mined from patent text by program, amines drawn as free bases though some values may be those of a salt).

As usually defined, the melting point is the temperature, or range, at which the solid turns liquid.

Non-standard residues stand in square brackets, D forms with d. Residues, ends and D or L forms follow the SMILES beside them. *: point of attachment. 1Nal = N[C@@H](Cc1cccc2ccccc12)C(=O)O; Leu(ol) = CC(C)C[C@H](N)CO; Cbz = O=C(OCc1ccccc1)*

As to `c1cnc(NCc2ccc(-c3n[nH]c4c3Cc3ccccc3-4)s2)nc1`, the melting point was 232 to 233 °C. As to `CCOC(=O)C1=C(C)NC(c2csc(N)n2)=NC1c1ccc(F)cc1Cl` (configuration not stated), the melting point lay within 95 to 110 °C. Consider `CC(C)c1ccc(S(=O)(=O)n2c(CBr)cc3cc(C(F)(F)F)ccc32)cc1`, for which the melting point was found to be 100 °C. The same measure for `CNc1ncc2c(=O)[nH]c(-c3ccccc3OC)nc2n1`: 265 to 267 °C; for `CCOC(=O)c1c(O)nc(SC(C)C)n1C(C)C`: 97 to 98 °C. To `CN(C(=S)NN)c1ccccc1` belongs 121 to 122 °C; to `CC(C)c1ccc(C(=O)C2=C(O)C(=O)N(c3ncc(S(=O)(=O)c4ccc([N+](=O)[O-])cc4)s3)C2c2ccc(C(F)(F)F)cc2)cc1` (configuration not stated), 300 to 302 °C. To `CC(C)(C)OC(=O)N1CCN(c2cccc(-c3cnc4[nH]cc(C(=O)C5(C)CCCCC5)c4n3)c2)CC1` belongs 212 to 213 °C; to `O=c1[nH]c2cc(Cl)ccc2c(=O)cc1NCc1ccccc1`, 309 to 314 °C. For the compound `CN(C)S(=O)(=O)c1ccc2c(c1)CC(N1CCN(CCN3CCOC3=O)CC1)c1ccccc1S2` (configuration not stated), the melting point is 164 to 165 °C.

`COc1ccc(Cl)cc1C(=O)NCCC1CCN(S(=O)(=O)NC(=S)NC2CCCCC2)CC1` showed a melting point of 146 to 148 °C. `CN(C1CCN(Cc2cnc3ccccc3c2)CC1)S(=O)(=O)c1ccc(Nc2nccc(Nc3ccc(F)cc3)n2)cc1` returned a melting point of 125 to 127 °C.

On to `Nc1ccc2nc3c(=O)[nH][nH]c(=O)c3c(O)c2c1`, for which the melting point lay in the range of 219 to 221 °C. The same measure for `CC(C)C[C@@H](CO)NC(=O)[C@H](Cc1c[nH]cn1)NC(=O)[C@H](Cc1cccc2ccccc12)NC(=O)OCc1ccccc1` (Cbz-[1Nal]-His-[Leu(ol)]): 157 to 159 °C. `CCCCCCCCN1CC=C(c2c[nH]c(-c3ccc(F)cc3)c2-c2ccncc2)CC1` registered a melting point of 173 to 175 °C.

Consider `COC(=O)C1=C(CO)NC(C)=C(C(=O)OC(C)C)C1c1ccccc1C#N` (configuration not stated), for which the melting point was in the range of 134 to 137 °C. The same measure for `O=C(O)C(CC1CCCCC1)NC(=O)C(CS)C(F)(F)F` (configuration not stated): 116 to 118 °C.

Take `CC(C)(c1ccc2c(=O)c3ccccc3sc2c1)[N+](=O)[O-]`: the melting point was in the range of 131 to 133 °C. The same measure for `O=[N+]([O-])c1ccccc1NC1CCN(Cc2ccccc2)CC1`: 93.4 to 94.6 °C; for `CCOc1cc(NCCO)c([N+](=O)[O-])cc1O`: 180 °C. Compound `CC(=O)N1CCC(NC(=O)Nc2ccc(C(F)(F)F)cc2)CC1` came in with a melting point of 240 to 248 °C. `COc1ccc2c(C=O)cccc2c1C(F)(F)F` showed a melting point of 92 to 94 °C. Take `CCN(C(=O)OC(C)(C)C)c1cnn(C(C)(C)C)c1Cl`: the melting point fell in the range of 50 to 52 °C. For `O=C(Nc1nccs1)c1c(C(F)(F)F)nc(-c2ccccc2)c(-c2ccccc2)c1O`, the melting point was 256 °C. In the case of `O=C(NCCc1ccc2c(c1)OCO2)C12CC3CC(CC(C3)C1)C2`, the melting point fell in the range of 146 to 148 °C. `C(CSc1nnc(SCCCN2CCOCC2)s1)CN1CCOCC1` had a melting point of 65.5 to 66 °C.

Consider `Cc1oc2cc(O)ccc2c(=O)c1C(N)=O`, for which the melting point lay in the range of 289 to 290 °C.

In turn, `COc1ccc(S(=O)(=O)Nc2cnccc2Nc2ccccc2)cc1` had a melting point of 201 to 202 °C. `CC(C)(C)OC(=O)c1ncn2c1[C@@H]1CCN1C(=O)c1ccccc1-2` had a melting point of 185 to 187 °C. The same measure for `CC(=O)C1(OC(=O)CCl)CCC2C3CCC4=CC(=O)CCC4(C)C3CCC21C` (configuration not stated): 134 to 135 °C; for `CCOC(=O)CC[C@H](NC(=O)c1ccc(CCC2CNc3nc(NC(=O)C(C)(C)C)[nH]c(=O)c3C2)s1)C(=O)OCC` (some centres not stated): 169 to 170 °C; for `O=C1NOc2cccc3nc4c(c(c23)C1Cc1ccccc1)CCCC4` (configuration not stated): 166 to 168 °C. Take `O=C(c1[nH]c2ccc(F)cc2c1Sc1ccccc1)N1CCCC1`: the melting point fell in the range of 184 to 186 °C. The same measure for `CC1NC(=O)NN=C1c1ccc2c(c1)CCC(=O)N2C` (configuration not stated): 240 to 242 °C; for `CCCCCCCCCOc1ccc2c(c1)C(CCNC(=O)CCC)CC2` (configuration not stated): 53 to 55 °C; for `CCOC(=O)C=C1NC(C)=C(C(=O)OCC)C(c2ccccc2C(F)(F)F)C1C(=O)OCC` (configuration not stated): 98 to 99 °C. The same measure for `CCNC(=O)Nc1snc(C)c1C(=O)OCC`: 150 to 151 °C. The same measure for `O=C(O)c1ccc(CO/N=C/c2cn(Cc3ccccc3)c3ccccc23)cc1Br`: 107 to 109 °C; for `Cc1cnc(C)n1CC(O)c1ccc(-c2ccc(N3C[C@H](Cn4ccnn4)OC3=O)cc2F)cn1` (some centres not stated): 195 to 200 °C. As to `CCCCN(CCCC)c1ccc(N=O)cc1`, the melting point was 122 to 124 °C.

As to `O=C1OC(O)(c2ccccc2)C2(Cl)CCCCC12` (configuration not stated), the melting point fell in the range of 89 to 92 °C. To `O=C(C=C1CCN(Cc2ccc(F)cc2)CC1)NCc1ccc(F)c(F)c1` belongs 83 to 85 °C.

Consider `COc1c(Cl)ccc(-c2cc(N)c(Cl)c(C(=O)NOCc3ccc(C)cc3)n2)c1F`, for which the melting point was in the range of 171 to 174 °C.

`C=CC(=O)NCc1ccc(CCCl)cc1` had a melting point of 145 to 147 °C. Take `O=[N+]([O-])c1cc2c(cc1Sc1ccccn1)CCC2`: the melting point stood at 74 °C. The same measure for `CCCCCCCCCCOCCC(=O)O`: 41.5 to 43.9 °C. The same measure for `CS(=O)c1ccc(-c2cc(C#N)nn2-c2ccc(F)cc2)cc1` (configuration not stated): 104 to 105 °C.

Compound `CCC(O)CNC(=O)c1ccc(C(F)(F)F)c(N)c1` (configuration not stated) registered a melting point of 132 to 134 °C. To `O=C(CCn1ccnc1)c1ccc(Cl)cc1Cl` belongs 105 to 109 °C; to `CN(C)C(=O)C(Cc1ccccc1)NC(=O)Nc1n[nH]c(=S)s1` (configuration not stated), 196 to 197 °C. To `CCCCn1c(CCC)cc(=O)c(C(=O)Nc2ccccc2)c1CCC` belongs 134 to 136 °C; to `Cc1cc(-c2cc([N+](=O)[O-])ccc2F)cc(C)n1`, 169 to 171 °C; to `COc1cc2c(cc1OC)CC(N(C)CCCN1CCc3cc4c(cc3CC1=O)OCCO4)CC2` (configuration not stated), 152 to 157 °C.

`NC(=O)Nc1cccc2c1C(=O)c1c-2n[nH]c1-c1csc(Cl)c1` registered a melting point of over 300 °C. The compound `COC(=O)c1ccc(NC(=O)C(=O)c2ccc3c(c2)C(C)(C)CCC3(C)C)cc1O` showed a melting point of 146 to 147 °C. `COC(=O)c1cnc(Cl)c2ccccc12`: the melting point lay within 53 to 55 °C. To `C[C@H]1CCCC(C)(C)[C@@H]1[C@H](O)c1ccc2c(c1)CCN(C(N)=O)C2` belongs 99.1 to 101 °C. In turn, `COc1cc(N)c(OC)c(OC)c1OC` displayed a melting point of 99 to 100 °C. Compound `O=C(N=C1SCCN1Cc1cnc(Cl)s1)c1ccccc1` gave a melting point of 120 °C. Regarding `CC1(C)OC(c2ccc(S(C)(=O)=O)cc2)=C(c2cccnc2)C1=O`, the melting point was in the range of 164 to 166 °C.

Consider `CC#CC1(O)CCC2C3CCC4=CC(=O)CCC4C3C(=CF)CC21CC` (configuration not stated), for which the melting point fell in the range of 199 to 205 °C. `O=C(Cl)c1ccc(C(=O)c2ccccc2)cc1` showed a melting point of 92 °C. To `CS(=O)(=O)CCOCCn1cnc2c(N)nc3ccccc3c21` belongs 145 to 148 °C; to `O=C(O)Cc1cccc(Sc2ccccc2Cl)c1O`, 91 to 93 °C; to `COc1cc2c(cc1OC)CN(CCc1ccc(NC(=O)c3cccc4c(=O)cc(-c5ccccc5)oc34)cc1)CC2`, 135 to 140 °C.

`C=CS(=O)(=O)NCc1ccc(OC)cc1` registered a melting point of 68 to 69 °C. On to `Cc1cccc(NC(=O)NC2N=C(C(C)C)c3ccccc3N(CC(=O)N3CC4CCC(CC4)C3)C2=O)c1` (configuration not stated), for which the melting point lay within 123 to 126 °C. Compound `O=c1[nH]c2cc(-c3ccncc3)ccc2c(=O)o1` gave a melting point of 265 to 267 °C.

`CN1C(=O)CC[C@]2(C)c3ccc(Sc4nc(-c5ccccc5)nc5ccccc45)cc3CC[C@@H]12` gave a melting point of 185 to 193 °C. The same measure for `COC(=O)C#CC(=O)c1ccccc1C`: 43 to 45 °C; for `CC(=O)c1c(C)sc(C)c1CC(N)=O`: 123 to 125 °C. `O=C(Nc1nnn[nH]1)c1csc(-c2ncccc2O)n1`: the melting point is over 300 °C.

The compound `CCCN1C(=O)N(c2ccc(N3CCN(c4ccc(O)cc4)CC3)cc2)NC1C` (configuration not stated) yielded a melting point of 253 °C. To `O=C(Cc1ccncn1)c1ccc(Cl)cc1` belongs 110 °C.

In turn, `CN1CCN(c2ccc(-c3cnn4c(N)c(-c5ccccc5Cl)cnc34)cc2)CC1` registered a melting point of 197 to 200 °C. To `CCCCCC1OCc2cc(C(N)=O)ccc2O1` (configuration not stated) belongs 162 to 163 °C. To `Oc1ccc2cc(OCCN3CCC(Cc4ccccc4)CC3)ccc2c1` belongs 139 to 141 °C; to `CN(C)c1cccc(CC(=O)Cc2cccc(Cl)c2)c1`, 58 to 60 °C; to `CC(Br)C(=O)c1ccc2c(c1)C(C)NC(=O)N2` (configuration not stated), 153 to 156 °C.

Regarding `Cc1ccnc(-c2cc(CO)ccn2)c1`, the melting point was 110 to 112 °C. Compound `Cc1c(NC(=O)CC(C)(C)C)cc2c(c1C)OC(C)(C)C2(O)Cc1ccccc1` (configuration not stated) registered a melting point of 212 to 213 °C. On to `CC(=Cc1ccc2cc[nH]c2c1)C(=O)O`, for which the melting point was in the range of 188 to 190 °C. `O=C(O)/C=C/c1ccc(C(=O)NC2CCCCC2)cc1` registered a melting point of 214 °C. To `COC(=O)c1sc2ccccc2c1S(N)(=O)=O` belongs 150 to 154 °C; to `O=C(O)CCC1OC(=O)C(O)=C1c1ccccc1` (configuration not stated), 177 to 179 °C. Take `CCOC(=O)C1=C(N)NC(N)=C(C(=O)OCC)C1c1cc([N+](=O)[O-])ccc1Cl`: the melting point was 130 °C. The same measure for `C=CCS(=O)(=O)c1ccc(NC(C)=O)cc1`: 116 to 118 °C; for `O=C(O)CCCc1cc2nc(C(F)(F)F)ccc2n1S(=O)(=O)c1cccc2ccccc12`: 195 °C; for `CCCOc1ccc(-c2ccc(=S)[nH]n2)cc1OC`: 170 °C. Compound `COc1ccc(S(=O)(=O)Nc2cccnc2Nc2ccncc2)cc1` gave a melting point of 172 to 173 °C. The same measure for `CCOC(=O)c1cn(CC(I)=C(I)I)c(Cl)c1Cl`: 117 to 119 °C. For `CC(O)c1ccc(OCCCCl)c(O)c1` (configuration not stated), the melting point was 107 to 109 °C.
